Assay results taken from PubChem BioAssay AID248 (DTP/NCI, 2004).
Where “and” joins values, the source holds several entries; their conditions need not be identical. Identical values can stand only once. Toxic doses and inconclusive results are not listed.

System: L1210 leukemia ip in BDF1 mice, survival T/C
Test: NCI In Vivo Anticancer Drug Screen. Data for tumor model L1210 Leukemia (intraperitoneal) in B6D2F1 (BDF1) mice
Conditions: endpoint: mean survival time, higher = longer survival
Method in brief: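 Each compound was tested against a transplantable tumor grown in mice. The endpoint was survival, with treated animals benchmarked against vehicle controls as a simple ratio.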

[1] = dose: 100.0 mg/kg/injection, schedule: Q01DX001 (ip), vehicle: saline
[2] = dose: 200.0 mg/kg/injection, schedule: Q01DX001 (ip), vehicle: saline
[3] = dose: 400.0 mg/kg/injection, schedule: Q01DX001 (ip), vehicle: saline
[4] = dose: 100.0 mg/kg/injection, schedule: Q01DX001 (ip), vehicle: carboxymethylcellulose (CMC)
[5] = dose: 200.0 mg/kg/injection, schedule: Q01DX001 (ip), vehicle: carboxymethylcellulose (CMC)
[6] = dose: 400.0 mg/kg/injection, schedule: Q01DX001 (ip), vehicle: carboxymethylcellulose (CMC)
[7] = dose: 100.0 mg/kg/injection, schedule: Q04DX002 (sc), vehicle: olive oil, sesame oil, peanut oil
[8] = dose: 200.0 mg/kg/injection, schedule: Q04DX002 (sc), vehicle: olive oil, sesame oil, peanut oil
[9] = dose: 400.0 mg/kg/injection, schedule: Q04DX002 (sc), vehicle: olive oil, sesame oil, peanut oil
[10] = dose: 100.0 mg/kg/injection, schedule: Q01DX009 (ip), vehicle: Klucel (hydroxypropylcellulose) (HPC)
[11] = dose: 100.0 mg/kg/injection, schedule: Q04DX003 (ip), vehicle: Klucel (hydroxypropylcellulose) (HPC)
[12] = dose: 200.0 mg/kg/injection, schedule: Q01DX009 (ip), vehicle: Klucel (hydroxypropylcellulose) (HPC)
[13] = dose: 200.0 mg/kg/injection, schedule: Q04DX003 (ip), vehicle: Klucel (hydroxypropylcellulose) (HPC)
[14] = dose: 400.0 mg/kg/injection, schedule: Q01DX009 (ip), vehicle: Klucel (hydroxypropylcellulose) (HPC)
[15] = dose: 400.0 mg/kg/injection, schedule: Q04DX003 (ip), vehicle: Klucel (hydroxypropylcellulose) (HPC)
[16] = dose: 25.0 mg/kg/injection, schedule: Q01DX009 (ip), vehicle: Klucel (hydroxypropylcellulose) (HPC)

With `C[N+]1(C)CCC(OC(=O)C(O)(c2ccccc2)C2CCCC2)C1` (stereo unspecified) the T/C (dose: 100.0 mg/kg/injection, schedule: Q04DX003 (ip), vehicle: saline with Tween-80) was 100 % of control.

For `O=C1NC(=O)C(CCCCCl)N1` (stereo unspecified), the T/C [1] was 91 % of control, the T/C [2] was 87 % of control and the T/C [3] was 94 % of control.

In the case of `O=[N+]([O-])c1ccccc1N=Nc1c(O)[nH]c2ccc(Cl)cc12`, the T/C [1] is reported as 95 % of control and the T/C [3] is reported as 92 % of control.

`Cc1cc(N(CCCl)CCCl)ccc1C=NC1CCCC1` was tested, and the T/C [4] was 102 % of control, the T/C [5] was 105 % of control and the T/C [6] was 118 % of control.

In the case of `Oc1ccccc1OCCOCCCl`, the T/C [7] is reported as 93 % of control, the T/C [8] is reported as 101 % of control and the T/C [9] is reported as 246 % of control.

In the case of `CCOc1ccccc1NC(=O)Nc1cccc2ccccc12`, the T/C [10] is reported as 104 % of control, the T/C [11] is reported as 90 % of control and the T/C [12] is reported as 96 % of control. The T/C [13] was 91 % of control, the T/C [14] was 102 % of control and the T/C [15] was 88 % of control.

For `c1ccc(-c2cnc3nc4ccccc4nc3n2)cc1`, the T/C (dose: 75.0 mg/kg/injection, schedule: Q01DX001 (ip), vehicle: other) was 87 % of control, the T/C (dose: 150.0 mg/kg/injection, schedule: Q01DX001 (ip), vehicle: other) was 91 % of control and the T/C (dose: 300.0 mg/kg/injection, schedule: Q01DX001 (ip), vehicle: other) was 97 % of control.

In the case of `O=C(O)CN1C(=O)C2C3CCC(O3)C2C1=O` (stereo unspecified), the T/C (dose: 100.0 mg/kg/injection, schedule: Q04DX003 (ip), vehicle: saline) is reported as 107 % of control, the T/C (dose: 200.0 mg/kg/injection, schedule: Q04DX003 (ip), vehicle: saline) is reported as 98 % of control and the T/C (dose: 400.0 mg/kg/injection, schedule: Q04DX003 (ip), vehicle: saline) is reported as 98 % of control.

For `CCOC(=O)C[Si](C)(c1ccccc1)c1ccccc1`, the T/C [1] was 108 % of control, the T/C [2] was 94 % of control and the T/C [3] was 89 % of control.

In the case of `CN(C)c1ccccc1C#N`, the T/C (dose: 100.0 mg/kg/injection, schedule: Q01DX009 (ip), vehicle: carboxymethylcellulose (CMC)) is reported as 93 % of control and 103 % of control, the T/C (dose: 100.0 mg/kg/injection, schedule: Q04DX002 (ip), vehicle: carboxymethylcellulose (CMC)) is reported as 108 % of control and the T/C (dose: 100.0 mg/kg/injection, schedule: Q04DX003 (ip), vehicle: carboxymethylcellulose (CMC)) is reported as 106 % of control. The T/C (dose: 200.0 mg/kg/injection, schedule: Q01DX009 (ip), vehicle: carboxymethylcellulose (CMC)) was 98 % of control and 104 % of control, the T/C (dose: 200.0 mg/kg/injection, schedule: Q04DX002 (ip), vehicle: carboxymethylcellulose (CMC)) was 94 % of control and the T/C (dose: 200.0 mg/kg/injection, schedule: Q04DX003 (ip), vehicle: carboxymethylcellulose (CMC)) was 101 % of control. For the same molecule, the T/C (dose: 400.0 mg/kg/injection, schedule: Q01DX009 (ip), vehicle: carboxymethylcellulose (CMC)) was 113 % of control, the T/C (dose: 400.0 mg/kg/injection, schedule: Q04DX002 (ip), vehicle: carboxymethylcellulose (CMC)) was 115 % of control and the T/C (dose: 400.0 mg/kg/injection, schedule: Q04DX003 (ip), vehicle: carboxymethylcellulose (CMC)) was 98 % of control.

In the case of `O=C(N/N=C/C1CC2C=CC1C2)c1ccncc1` (stereo unspecified), the T/C (dose: 25.0 mg/kg/injection, schedule: Q01DX009 (ip), vehicle: saline with Tween-80) is reported as 100 % of control, the T/C (dose: 50.0 mg/kg/injection, schedule: Q01DX009 (ip), vehicle: saline with Tween-80) is reported as 102 % of control and the T/C (dose: 100.0 mg/kg/injection, schedule: Q01DX009 (ip), vehicle: saline with Tween-80) is reported as 95 % of control and 103 % of control.

For `O=C(N/N=C\c1ccc([N+](=O)[O-])cc1)c1ccco1`, the T/C (dose: 100.0 mg/kg/injection, schedule: Q01DX001 (ip), vehicle: other) was 93 % of control, the T/C (dose: 200.0 mg/kg/injection, schedule: Q01DX001 (ip), vehicle: other) was 93 % of control and the T/C (dose: 400.0 mg/kg/injection, schedule: Q01DX001 (ip), vehicle: other) was 93 % of control.

With `Clc1cc(Cl)c2c(c1)Cc1cc(Cl)cc(Cl)c1-2` the T/C [10] was 94 % of control, the T/C [11] was 92 % of control and the T/C [12] was 91 % of control. For the same molecule, the T/C [13] was 89 % of control, the T/C [14] was 87 % of control and the T/C [15] was 102 % of control.

In the case of `C1=CC2(CC=C1C1=CCC3(C=C1)SCCS3)SCCS2`, the T/C (dose: 50.0 mg/kg/injection, schedule: Q04DX002 (ip), vehicle: Klucel (hydroxypropylcellulose) (HPC)) is reported as 108 % of control, the T/C (dose: 100.0 mg/kg/injection, schedule: Q04DX002 (ip), vehicle: Klucel (hydroxypropylcellulose) (HPC)) is reported as 101 % of control and the T/C (dose: 200.0 mg/kg/injection, schedule: Q04DX002 (ip), vehicle: Klucel (hydroxypropylcellulose) (HPC)) is reported as 104 % of control.

With `Cc1cccc(Nc2cc(N)nc(N)n2)c1` the T/C (dose: 50.0 mg/kg/injection, schedule: Q01DX Z (ip), vehicle: methylcellulose (MC)) was 96 % of control.

In the case of `CCCCCCCCCCCCNCCC#N`, the T/C [7] is reported as 100 % of control, the T/C [8] is reported as 98 % of control and the T/C [9] is reported as 98 % of control.

For `COc1ccc2c[n+](C)c3c4cc(OC)c(OC)cc4ccc3c2c1`, the T/C (dose: 6.25 mg/kg/injection, schedule: Q04DX003 (ip), vehicle: saline with Tween-80) was 105 % of control, the T/C (dose: 12.5 mg/kg/injection, schedule: Q04DX003 (ip), vehicle: saline with Tween-80) was 105 % of control and the T/C (dose: 25.0 mg/kg/injection, schedule: Q04DX003 (ip), vehicle: saline with Tween-80) was 105 % of control.

With `Nc1nc(N)c2cc(CNc3ccc(C(=O)NC(CC(=O)O)C(=O)O)c(Cl)c3)ccc2n1` (stereo unspecified) the T/C (dose: 1.8 mg/kg/injection, schedule: Q01DX009 (ip), vehicle: saline with Tween-80) was 152 % of control, the T/C (dose: 1.8 mg/kg/injection, schedule: Q01DX009 (ip), vehicle: saline) was 157 % of control and the T/C (dose: 2.7 mg/kg/injection, schedule: Q01DX009 (ip), vehicle: saline with Tween-80) was 178 % of control. The T/C (dose: 2.7 mg/kg/injection, schedule: Q01DX009 (ip), vehicle: saline) was 162 % of control and 180 % of control, the T/C (dose: 9.0 mg/kg/injection, schedule: Q01DX009 (ip), vehicle: saline) was 92 % of control and the T/C (dose: 30.0 micrograms/kg/injection, schedule: Q01DX009 (ip), vehicle: saline with Tween-80) was 95 % of control. For the same molecule, the T/C (dose: 44.0 micrograms/kg/injection, schedule: Q01DX009 (ip), vehicle: saline with Tween-80) was 107 % of control, the T/C (dose: 67.0 micrograms/kg/injection, schedule: Q01DX009 (ip), vehicle: saline with Tween-80) was 95 % of control and the T/C (dose: 100.0 micrograms/kg/injection, schedule: Q01DX009 (ip), vehicle: saline with Tween-80) was 95 % of control.

With `C[SH+]c1ccccc1N=Cc1ccccn1.C[SH+]c1ccccc1N=Cc1ccccn1.[Ni+2].[O-][Cl+3]([O-])([O-])[O-]` the T/C (dose: 88.8 mg/kg/injection, schedule: Q01DX001 (ip), vehicle: saline) was 93 % of control and 96 % of control, the T/C [1] was 105 % of control and the T/C (dose: 133.4 mg/kg/injection, schedule: Q01DX001 (ip), vehicle: saline) was 96 % of control and 105 % of control. The T/C (dose: 300.0 mg/kg/injection, schedule: Q01DX001 (ip), vehicle: saline) was 95 % of control and 102 % of control.

In the case of `Nc1cc(Nc2ccc(Cl)[nH]c2=S)nc(N)n1`, the T/C (dose: 100.0 mg/kg/injection, schedule: Q01DX001 (ip), vehicle: Klucel (hydroxypropylcellulose) (HPC)) is reported as 90 % of control, the T/C (dose: 200.0 mg/kg/injection, schedule: Q01DX001 (ip), vehicle: Klucel (hydroxypropylcellulose) (HPC)) is reported as 93 % of control and the T/C (dose: 400.0 mg/kg/injection, schedule: Q01DX001 (ip), vehicle: Klucel (hydroxypropylcellulose) (HPC)) is reported as 92 % of control.

In the case of `CSc1cc2c(cc1NC(C)=O)Cc1cc(F)ccc1-2`, the T/C [4] is reported as 98 % of control, the T/C [5] is reported as 101 % of control and the T/C [6] is reported as 95 % of control.

For `N#CC12CC=CCC1CCC2=N` (stereo unspecified), the T/C (dose: 12.5 mg/kg/injection, schedule: Q01DX009 (ip), vehicle: Klucel (hydroxypropylcellulose) (HPC)) was 96 % of control and the T/C [16] was 89 % of control.

For `CCOc1ccc(NC(=O)Nc2ccccc2C(F)(F)F)cc1`, the T/C [10] was 89 % of control, the T/C [12] was 96 % of control and the T/C [14] was 100 % of control.

`O=C(O)c1ccncc1C(=O)O` was tested, and the T/C (dose: 50.0 mg/kg/injection, schedule: Q01DX001 (ip), vehicle: carboxymethylcellulose (CMC)) was 87 % of control, the T/C [4] was 90 % of control and the T/C [5] was 87 % of control.

For `O=C(O)CNC(=O)c1ccc(NC(=S)Nc2ccccc2)cc1`, the T/C [16] was 90 % of control, the T/C (dose: 50.0 mg/kg/injection, schedule: Q01DX009 (ip), vehicle: Klucel (hydroxypropylcellulose) (HPC)) was 88 % of control and the T/C [10] was 108 % of control and 91 % of control.

For `CC(=O)OCCOC(C)=O`, the T/C [1] was 103 % of control, the T/C [2] was 97 % of control and the T/C [3] was 94 % of control.
